{
  "source": "patent US11571397B2",
  "about": "“Compositions and methods for treating seizure-induced sudden death” (ZOGENIX INTERNATIONAL LIMITED, priority 2018, dated 2023)",
  "key": {"[1]": {"system": "DBA/1 mice", "test": "Audiogenic seizures (AGSz) and S-IRA in DBA/1 mice, initial testing protocol (30 min, 12 h, 24 h, then 24 h intervals)", "format": "in vivo, mouse", "source_text": "These studies involved age matched (<80 days) male DBA/1 mice obtained from ENVIGO. Because there were no significant sex differences in the AGSz incidence (frequency), severity and S-IRA susceptibility in DBA/1 mice, males were used in this study. The mice were primed as described in previous studies (Faingold et al., (2010). Epilepsy Behav. 17:436-40; Faingold, et al. (2011) Brain Res. 1418:104-10; Faingold, et al., (2011) Epilepsy Behav. 22:186-90). Briefly, the mice were maintained on an ad libitum diet under a 12 h light-dark cycle in a temperature and humidity-controlled laboratory animal medicine facility. Starting at postnatal day 23-25, the mice were primed and tested for consistent susceptibility to AGSz and S-IRA by presenting an intense acoustic stimulus, as described previously.\nThe typical seizure semiology in the DBA/1 mice begins with a wild running phase, followed by clonic-tonic seizures and then tonic hind-limb extension that immediately leads to S-IRA during post-ictal behavioral depression (PID). The onset of S-IRA was visually determined by the occurrence of respiratory failure following loss of the righting reflex, relaxation of the pinnae, and then a generalized loss of muscle tone. These behaviors are reliable indicators of imminent sudden death in DBA mice. Resuscitation was initiated within 10 s after pinna relaxation and the generalized loss of muscle tone, which was effective in reversing S-IRA and reviving >90% of the mice. The mice were placed in a supine position, and a polyethylene tube (4.4 mm external diameter) connected to the outflow of a rodent respirator (Harvard Apparatus 680), pumping one cc of room air at 200 strokes/min, was the placed over the nostrils, which produced observable displacement of the chest. Respiratory support was provided until spontaneous breathing rhythm returned, which required ˜19 sec. The mice were monitored until they regained the righting reflex and then returned to their home cage. Video recordings of seizure behaviors and recovery were made for off-line evaluation and analysis, including the duration of PID, as indicated by time from muscle tone loss to return of the righting reflex.\nThe experiments herein disclosed examined the dose-response relationship of FFA (10-40 mg/kg, i.p.) on AGSz-induced behaviors in DBA/1 mice compared to vehicle (saline) treated control mice using different seizure-testing protocols. This initial protocol involved induction of AGSz at 30 min, 12 h and 24 h after drug administration, and subsequently at 24 h intervals until susceptibility to S-IRA returned. These studies were aimed at determining whether FFA can reduce the incidence (frequency) and severity of AGSz and susceptibility to S-IRA. […] To determine the effect of FFA on the severity of AGSz in DBA/1 mice, the ordinal scoring system of De Sarro and coworkers was used: no seizure=0; wild running=1; clonic seizure=2; tonic seizure=3; death/S-IRA=4. The median effective dose (ED50) for FFA for blocking AGSz at 30 min following the i.p. injection in DBA/1 mice was calculated using a second order polynomial equation (y=65.113x^2-2.0715x-63.578) that gave the best fit (R^2=0.9989).\nThe videos of seizure behaviors were analyzed visually, and the incidence (frequency) of AGSz, seizure severity, and incidence (frequency) of S-IRA following drug treatment were compared statistically to vehicle controls using the Chi-square, Mann-Whitney U or paired samples t-test with SPSS software. The ED50 was calculated using SigmaPlot 13 and Microsoft® Excel. The experimental protocols used in these studies were approved by the Laboratory Animal Care and Use Committee of Southern Illinois University School of Medicine, which are in accordance with National Institutes of Health guidelines for the care and use of laboratory animals. Measures to minimize animal usage as well as pain and discomfort were included in these procedures."}, "[2]": {"system": "zebrafish model of Dravet syndrome", "details": "in vivo; cited from earlier work"}, "[3]": {"system": "children with refractory epilepsy", "details": "0.5 to 1 mg/kg/day; cited from earlier work"}, "[4]": {"system": "Dravet syndrome patients", "details": "cited from earlier work"}, "[5]": {"details": "20 and 40 mg/kg i.p., starting at 30 min, vs saline"}},
  "data": [
    {"compound": "CCNC(C)Cc1cccc(C(F)(F)F)c1", "note": "(racemic) [FFA, 3-trifluoromethyl-N-ethylamphetamine]", "values": [
      {"measurement": "incidence (frequency) of S-IRA", "setting": "[1]; 10 mg/kg", "value": "not affected"},
      {"measurement": "incidence of tonic seizures", "setting": "[1]; 10 mg/kg", "value": "not affected"},
      {"measurement": "incidence (frequency) of AGSz", "setting": "[1]; 10 mg/kg i.p.", "value": "No significant effect"},
      {"measurement": "AGSz severity", "setting": "[1]; 10 mg/kg, at 12 h", "value": "significantly reduced"},
      {"measurement": "reduction of S-IRA", "setting": "[1]; 10 mg/kg, at 12 h", "value": 36.4, "unit": "%"},
      {"measurement": "reduction of tonic seizure", "setting": "[1]; 10 mg/kg, at 12 h", "value": 54.6, "unit": "%"},
      {"measurement": "mice showing S-IRA blockade following tonic seizure (selective S-IRA block)", "setting": "[1]; 10 mg/kg, at 12 h, not statistically significant", "value": 18.2, "unit": "%"},
      {"measurement": "duration of AGSz blockade", "setting": "[1]; 15 mg/kg", "value": "< 24", "unit": "h"},
      {"measurement": "onset of AGSz blockade", "setting": "[1]; 15 mg/kg", "value": 12, "unit": "h"},
      {"measurement": "tonic seizure blocking effect", "setting": "[1]; 15 mg/kg", "value": "delayed and transient"},
      {"measurement": "return of maximal seizure severity", "setting": "[1]; 20 mg/kg", "value": 24, "unit": "h"},
      {"measurement": "duration of seizure severity decrease", "setting": "[1]; 40 mg/kg", "value": "up to 8 days"},
      {"measurement": "mice continuing to show reduced susceptibility to tonic AGSz and S-IRA for up to 8 days", "setting": "[1]; 40 mg/kg", "value": 33.3, "unit": "%"},
      {"measurement": "return of maximal seizure severity", "setting": "[1]; 40 mg/kg", "value": 48, "unit": "h"},
      {"measurement": "time at which reduction in severity score occurred", "setting": "[1]; 10 and 15 mg/kg", "value": 12, "unit": "h"},
      {"measurement": "incidence (frequency) of AGSz", "setting": "[1]; 15, 20 and 40 mg/kg i.p. vs saline treated controls", "value": "significantly reduce"},
      {"measurement": "incidence (frequency) of S-IRA", "setting": "[1]; 15, 20 and 40 mg/kg i.p., beginning at 30 min, vs saline", "value": "significant reduction"},
      {"measurement": "duration of reductions of seizure incidence, severity and S-IRA susceptibility", "setting": "[1]; 20-40 mg/kg", "value": "≥ 48", "unit": "h"},
      {"measurement": "susceptibility to AGSz", "setting": "[1]; 20 and 40 mg/kg i.p., at 30 minutes, vs saline-treated controls", "value": "significantly reduced"},
      {"measurement": "median AGSz severity score", "setting": "[1]; [5]", "value": "significant reduction"},
      {"measurement": "tonic seizure incidence", "setting": "[1]; [5]", "value": "significant reduction"},
      {"measurement": "return of S-IRA susceptibility", "setting": "[1]; FFA-treated mice, initial protocol", "value": "≤ 72", "unit": "h"},
      {"measurement": "ED50", "setting": "[1]; Mus musculus, ip, 0.5 h, 30 min after i.p. injection, read-out: ED50 for blockade of AGSz", "value": 21.7, "unit": "mg/kg"},
      {"measurement": "blocking electrographic and seizure-like behavioral activity", "setting": "[2]", "value": "effective"},
      {"measurement": "number of seizures experienced by the patients", "setting": "[3]", "value": "reduction"},
      {"measurement": "frequency and/or severity of intractable seizures", "setting": "[4]", "value": "significantly reduced"}
    ]}
  ]
}
